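1) Cells in 96-well plates. 2) Compound, 48 h, 5 concentrations. 3) Linear interpolation between surrounding doses. 4) Unreached endpoint = highest concentration. At the GI50, growth is halved.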 Active and inactive are the calls of the source. No stated cut-off is given here; in the data, active = GI50 up to about 1.1 µM and inactive = higher.
How the values were obtained:
Assay in all cases: NCI tumour cell line growth inhibition, 48 h
DLD-1 = tested on: DLD-1
DMS-114 = tested on: DMS-114
HOP-18 = tested on: HOP-18
KM-20L2 = tested on: KM-20L2
LXFL 529 = tested on: LXFL 529
RXF 631 = tested on: RXF 631
XF498 = tested on: XF498
SNB-78 = tested on: SNB-78

Measured: GI50

CCC1(CC)C(=O)NC(=S)N=C1N
inactive: DLD-1 > 100 µM | DMS-114 > 100 µM | HOP-18 > 100 µM | KM-20L2 > 100 µM | LXFL 529 > 100 µM | RXF 631 > 100 µM | XF498 > 100 µM

CCc1cccc(C)c1NC(=O)C1=C(C)NC(C)=C(C(=O)Nc2c(C)cccc2CC)C1c1ccc([N+](=O)[O-])cc1
inactive: DLD-1 29 µM | KM-20L2 39.9 µM | LXFL 529 37.9 µM | RXF 631 29.1 µM | SNB-78 97.1 µM | XF498 19.4 µM

COc1cc2c(cc1OC)[C@@H]([C@H](O)c1ccccc1)NCC2
inactive: DLD-1 > 100 µM | DMS-114 > 100 µM | HOP-18 > 100 µM | KM-20L2 > 100 µM | LXFL 529 > 100 µM | RXF 631 > 97.3 µM | SNB-78 > 100 µM | XF498 > 100 µM

Cc1ccc(NC(=O)CC/C(CC(=O)C(C)(C)C)=N\Nc2ccc([N+](=O)[O-])cc2[N+](=O)[O-])cc1C
inactive: DLD-1 47.6 µM | DMS-114 30 µM | HOP-18 > 100 µM | KM-20L2 > 100 µM | LXFL 529 40.9 µM | RXF 631 > 100 µM | SNB-78 > 100 µM

CC(C)[C@H](COC(C)(C)C)/N=C/N1CSc2ccccc21
inactive: DLD-1 48.4 µM | DMS-114 21.8 µM | KM-20L2 27.8 µM | LXFL 529 34.7 µM | RXF 631 27.4 µM | SNB-78 30 µM | XF498 16.9 µM

CCCCCCCCCCCCC(Br)C(C)=O (centres undefined)
inactive: DLD-1 > 100 µM | DMS-114 > 100 µM | HOP-18 > 100 µM | KM-20L2 > 100 µM | LXFL 529 > 100 µM | RXF 631 > 100 µM | SNB-78 > 100 µM | XF498 > 100 µM

ClCc1ccc(C2OCCO2)cc1
inactive: DLD-1 17.2 µM | DMS-114 > 24 µM | HOP-18 37.5 µM | KM-20L2 > 45.9 µM | LXFL 529 17.1 µM | RXF 631 > 100 µM | SNB-78 14.4 µM | XF498 18.8 µM

COc1ccc(C(=O)Nc2ccc(S(=O)(=O)NCC(=O)O)cc2)cc1
inactive: DLD-1 > 100 µM | HOP-18 > 100 µM | KM-20L2 > 100 µM | LXFL 529 > 100 µM | RXF 631 > 100 µM | XF498 > 100 µM

O=C1Nc2ccccc2N=CC1NC(=O)C(c1ccccc1)c1ccccc1 (centres undefined)
inactive: DLD-1 > 100 µM | DMS-114 86.5 µM | HOP-18 > 100 µM | KM-20L2 > 100 µM | LXFL 529 > 100 µM | RXF 631 > 100 µM | SNB-78 > 100 µM
